Earlier results, collected in patent US20080057086A1, “COLON-TARGETED ORAL FORMULATIONS OF CYTIDINE ANALOGS” (PHARMION CORPORATION, priority 2006, published 2008).

Test system: total hemoglobin, fetal hemoglobin and F cells
Conditions: sickle cell patients; oral THU 200 mg/d alone; cited from earlier work

O=C1NC(O)CCN1[C@@H]1O[C@H](CO)[C@@H](O)[C@H]1O (stereo partly shown) [THU, tetrahydrouridine]
F reticulocyte production: did not result in increased F reticulocyte production
